{"source": "ChEMBL document CHEMBL1149706", "about": "“Discovering benzamide derivatives as glycogen phosphorylase inhibitors and their binding site at the enzyme” (Bioorg Med Chem, 2007)"}
{"assay": "Inhibition of rabbit muscle GPa", "parameters": "species or system Oryctolagus cuniculus", "units": {"IC50": "µM"}}
{"smiles": "Cn1ccnc1Sc1cc(C(=O)NCc2ccccc2)c(N)cc1F", "IC50": 153}
{"smiles": "COc1ccccc1NC(=O)c1cc(Sc2nccn2C)c(F)cc1N", "IC50": 41.8}
{"smiles": "COc1cccc(NC(=O)c2cc(Sc3nccn3C)c(F)cc2N)c1", "IC50": 166}
{"smiles": "Cn1ccnc1Sc1cc(C(=O)Nc2cccc(F)c2)c(N)cc1F", "IC50": 30.9}
{"smiles": "Cn1ccnc1Sc1cc(C(=O)Nc2ccccc2C#N)c(N)cc1F", "IC50": 75.9}
{"smiles": "Cn1ccnc1Sc1cc(C(=O)Nc2cccc(C(F)(F)F)c2)c(N)cc1F", "IC50": 8.95}
{"smiles": "O=C(CN1CCN(c2ccccc2)CC1)Nc1nccs1", "IC50": 96.9}
{"smiles": "Cn1ccnc1Sc1cc(C(=O)Nc2ccc(N)cc2)c(N)cc1F", "IC50": 91.1}
{"smiles": "Cn1ccnc1Sc1cc(C(=O)Nc2cccc(N)c2)c(N)cc1F", "IC50": 2.68}
{"smiles": "O=C(CN1CCN(c2ccccc2F)CC1)Nc1cccc(C(F)(F)F)c1", "IC50": 78.5}
{"smiles": "O=C(Nc1nccs1)c1ccc(C(=O)Nc2nccs2)cc1", "IC50": 337}
{"smiles": "Cc1ccc(NC(=O)c2cc(Sc3nccn3C)c(F)cc2N)cc1", "IC50": 70.1}
{"smiles": "Cn1ccnc1Sc1cc(C(=O)Nc2ccccc2N)c(N)cc1F", "IC50": 95.3}
{"smiles": "Cn1ccnc1Sc1cc(C(=O)Nc2cccc(C#N)c2)c(N)cc1F", "IC50": 9.87}
{"smiles": "O=C(CN1CCN(c2ccccc2F)CC1)Nc1nccs1", "IC50": 35.8}
{"smiles": "COc1ccccc1N1CCN(CC(=O)Nc2cccc(C(F)(F)F)c2)CC1", "IC50": 46.1}
{"smiles": "Cn1ccnc1Sc1cc(C(=O)Nc2ccccc2)c(N)cc1F", "IC50": 215}
{"smiles": "O=C(Nc1ccccn1)c1cccc(C(=O)Nc2ccccn2)c1", "IC50": 57.6}
{"smiles": "O=C(Nc1nncs1)c1ccc(C(=O)Nc2nncs2)cc1", "IC50": 269}
{"smiles": "Cn1ccnc1Sc1cc(C(=O)Nc2ccc(C#N)cc2)c(N)cc1F", "IC50": 96.1}
{"smiles": "COc1ccc(NC(=O)c2cc(Sc3nccn3C)c(F)cc2N)cc1", "IC50": 107}
{"smiles": "O=C(Nc1ccccn1)c1cccc(C(=O)Nc2ccccn2)n1", "IC50": 425}
